BindingDB's records for doi:10.1021/jm00003a001 (Glaxo Research Institute, 1995)

Target: DNA topoisomerase 1 (Bos taurus)
Experiment: Inhibition of topoisomerase I activity was determined in vitro by using the cleavable complex assay(calf thymus)

Row | Compound | IC50
1 | CC[C@@]1(O)C(=O)OCc2c1cc1n(c2=O)Cc2c-1nc1cc3c(cc1c2CCl)OCCO3 [15-chloromethyl-8-ethyl-8-hydroxy-(8S)-2,3,8,9,12,14-hexahydro-11H-[1,4]dioxino[2,3-g]pyrano[3',4':6,7]indolizino[1,2-b]quinoline-9,12-dione] | 11 nM
2 | CC[C@@]1(O)C(=O)OCc2c1cc1n(c2=O)Cc2c-1nc1cc3c(cc1c2CCl)OCO3 [14-chloromethyl-7-ethyl-7-hydroxy-(7S)-7,8,11,13-tetrahydro-10H-[1,3]dioxolo[4,5-g]pyrano[3',4':6,7]indolizino[1,2-b]quinoline-8,11-dione] | 15 nM
3 | CC[C@@]1(O)C(=O)OCc2c1cc1n(c2=O)Cc2c-1nc1cc3c(cc1c2CN1CCN(C)CC1)OCCO3 [8-ethyl-8-hydroxy-15-(4-methylhexahydro-1-pyrazinylmethyl)-(8S)-2,3,8,9,12,14-hexahydro-11H-[1,4]dioxino[2,3-g]pyrano[3',4':6,7]indolizino[1,2-b]quinoline-9,12-dione with trifluoroaceticacid] | 416 nM
